In US9303012B2, “Pyridine-2-amides useful as CB2 agonists” (Hoffmann-La Roche Inc., priority 2012, dated 2016) one finds EC50 data, which are given here for 11 molecules.

Where only a bound is given, the exact number is not on record here.

Broadly, the EC50 is the concentration at which the effect is half-maximal. Read a high EC50 as a less potent agent.

The target of one assay is human CB2 receptors (Homo sapiens (Human), UniProt P34972). Nature of the assay: functional cAMP assay, CHO cells expressing human CB2 receptors. The assay is classed as cell-based. As for the experimental part:
(§1) CHO cells expressing human CB1 or CB2 receptors are seeded 17-24 hours prior to the experiment 50.000 cells per well in a black 96 well plate with flat clear bottom (Corning Costar #3904) in DMEM (Invitrogen No. 31331), 1×HT supplement, with 10% fetal calf serum and incubated at 5% CO2 and 37° C. in a humidified incubator. The growth medium was exchanged with Krebs Ringer Bicarbonate buffer with 1 mM IBMX and incubated at 30° C. for 30 min. Compounds were added to a final assay volume of 100 μl and incubated for 30 min at 30° C. Using the cAMP-Nano-TRF detection kit the assay (Roche Diagnostics) was stopped by the addition of 50 μl lysis reagent (Tris, NaCl, 1.5% Triton X100, 2.5% NP40, 10% NaN3) and 50 μl detection solutions (20 μM mAb Alexa700-cAMP 1:1, and 48 μM Ruthenium-2-AHA-cAMP) and shaken for 2 h at room temperature. The time-resolved energy transfer is measured by a TRF reader (Evotec Technologies GmbH), equipped with a ND:YAG laser as excitation source. The plate is measured twice with the excitation at 355 nm and at the emission with a delay of 100 ns and a gate of 100 ns, total exposure time 10 s at 730 (bandwidth 30 nm) or 645 nm (bandwidth 75 nm), respectively. The FRET signal is calculated as follows: FRET=T730-Alexa730-P(T645-B645) with P=Ru730-B730/Ru645-B645, where T730 is the test well measured at 730 nM, T645 is the test well measured at 645 nm, B730 and B645 are the buffer controls at 730 nm and 645 nm, respectively. cAMP content is determined from the function of a standard curve spanning from 10 μM to 0.13 nM cAMP.
(§2) EC50 values were determined using Activity Base analysis (ID Business Solution, Limited). The EC50 values for a wide range of cannabinoid agonists generated from this assay were in agreement with the values published in the scientific literature.

The target in another assay is human CB1 receptors (Homo sapiens (Human), UniProt P21554). Nature of the assay: functional cAMP assay, CHO cells expressing human CB1 receptors. The assay is classed as cell-based. On the procedure: as §1, §2
Chain of human CB1 receptors (P21554 whole entry): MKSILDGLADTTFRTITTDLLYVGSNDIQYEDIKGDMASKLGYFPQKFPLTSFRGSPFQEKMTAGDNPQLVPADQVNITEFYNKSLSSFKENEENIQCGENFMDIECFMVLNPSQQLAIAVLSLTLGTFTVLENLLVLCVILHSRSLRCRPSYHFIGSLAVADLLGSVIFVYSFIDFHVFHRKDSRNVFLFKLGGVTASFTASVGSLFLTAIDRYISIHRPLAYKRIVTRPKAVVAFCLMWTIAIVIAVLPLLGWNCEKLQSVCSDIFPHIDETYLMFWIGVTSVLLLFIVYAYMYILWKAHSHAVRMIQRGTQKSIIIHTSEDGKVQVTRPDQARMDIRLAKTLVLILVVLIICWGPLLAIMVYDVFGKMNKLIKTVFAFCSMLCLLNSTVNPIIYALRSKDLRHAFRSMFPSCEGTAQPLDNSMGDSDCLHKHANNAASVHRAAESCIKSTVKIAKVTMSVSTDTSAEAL
For orientation: cAMP levels reflect the balance of adenylyl cyclase and phosphodiesterase activity.

Chain of human CB2 receptors (P34972 whole entry): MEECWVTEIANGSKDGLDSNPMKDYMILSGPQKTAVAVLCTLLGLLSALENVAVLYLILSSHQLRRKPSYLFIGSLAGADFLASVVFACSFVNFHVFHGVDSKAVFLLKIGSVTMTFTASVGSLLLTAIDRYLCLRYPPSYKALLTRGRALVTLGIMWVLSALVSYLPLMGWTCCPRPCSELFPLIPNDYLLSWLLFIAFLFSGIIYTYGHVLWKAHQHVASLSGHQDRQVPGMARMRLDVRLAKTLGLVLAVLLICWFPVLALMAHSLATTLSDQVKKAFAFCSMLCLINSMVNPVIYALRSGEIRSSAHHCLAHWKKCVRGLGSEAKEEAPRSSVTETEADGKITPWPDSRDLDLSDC

`CN(C=O)C(=O)c1ccc(N2CC(F)(F)C2)c(OCC2CC2)n1` [Example 51, 6-(Cyclopropylmethoxy)-5-(3,3-difluoroazetidin-1-yl)-N-formyl-N-methylpyridine-2-carboxamide]: the values for the EC50 on human CB2 receptors and at human CB1 receptors were 789 nM and more than 10000 nM, respectively.

Take `CN(C(=O)c1ccc(N2CC(F)(F)C2)c(OCC2CC2)n1)c1ccccc1` [Example 52, 6-Cyclopropylmethoxy-5-(3,3-difluoro-azetidin-1-yl)-pyridine-2-carboxylic acid methyl-phenyl-amide]: the 50% effective concentration (EC50) is 645 nM on human CB2 receptors and more than 10000 nM at human CB1 receptors.

For the molecule `O=C(c1ccc(N2CC(F)(F)C2)c(OCC2CC2)n1)N1CC(F)(F)C[C@H]1CO` [Example 53, [6-Cyclopropylmethoxy-5-(3,3-difluoro-azetidin-1-yl)-pyridin-2-yl]-((S)-4,4-difluoro-2-hydroxymethyl-pyrrolidin-1-yl)-methanone], the half-maximal effective concentration (EC50) is 3.7 nM at human CB2 receptors and more than 10000 nM on human CB1 receptors.

Take `Cc1cn(C)nc1N(C)C(=O)c1ccc(N2CC(F)(F)C2)c(OCC2CC2)n1` [Example 54, 6-Cyclopropylmethoxy-5-(3,3-difluoro-azetidin-1-yl)-pyridine-2-carboxylic acid (1,4-dimethyl-1H-pyrazol-3-yl)-methyl-amide]: the 50% effective concentration (EC50) on human CB2 receptors was 462 nM; on human CB1 receptors, more than 10000 nM.

On to `CC1(C)CN(C(=O)c2ccc(N3CC(F)(F)C3)c(OCC3CC3)n2)CCO1` [Example 55, [6-Cyclopropylmethoxy-5-(3,3-difluoro-azetidin-1-yl)-pyridin-2-yl]-(2,2-dimethyl-morpholin-4-yl)-methanone], for which the values for the EC50 on human CB2 receptors and at human CB1 receptors were 55.4 nM and more than 10000 nM, respectively.

Consider `CN1C(=O)CN(C(=O)c2ccc(N3CC(F)(F)C3)c(OCC3CC3)n2)[C@@H]1C(C)(C)C` [Example 56, (R)-2-tert-Butyl-1-[6-cyclopropylmethoxy-5-(3,3-difluoro-azetidin-1-yl)-pyridine-2-carbonyl]-3-methyl-imidazolidin-4-one], for which the EC50 on human CB2 receptors is 36.9 nM; at human CB1 receptors, more than 10000 nM.

For the molecule `O=C(c1ccc(N2CC(F)(F)C2)c(OCC2CC2)n1)N1CCCC12CC2` [Example 57, (4-Aza-spiro[2.4]hept-4-yl)-[6-cyclopropylmethoxy-5-(3,3-difluoro-azetidin-1-yl)-pyridin-2-yl]-methanone], the values for the EC50 at human CB2 receptors and on human CB1 receptors were 1.8 nM and more than 10000 nM, respectively.

`CC1(C)CC(C2CCN(C(=O)c3ccc(N4CC(F)(F)C4)c(OCC4CC4)n3)CC2)C(=O)N1` (stereo not shown) [Example 58, 3-{1-[6-Cyclopropylmethoxy-5-(3,3-difluoro-azetidin-1-yl)-pyridine-2-carbonyl]-piperidin-4-yl}-5,5-dimethyl-pyrrolidin-2-one]: the concentration giving a half-maximal response (EC50) was 594 nM on human CB2 receptors and more than 10000 nM on human CB1 receptors.

As for `O=C(c1ccc(N2CC(F)(F)C2)c(OCC2CC2)n1)N1C[C@@H]2CC[C@H]1C2` [Example 59, (1S,4R)-2-Aza-bicyclo[2.2.1]hept-2-yl-[6-cyclopropylmethoxy-5-(3,3-difluoro-azetidin-1-yl)-pyridin-2-yl]-methanone], the half-maximal effective concentration (EC50) is 14.2 nM at human CB2 receptors and more than 10000 nM at human CB1 receptors.

For `NC(=O)[C@@H]1CC(F)(F)CN1C(=O)c1ccc(N2CC(F)(F)C2)c(OCC2CC2)n1` [Example 60, (S)-1-[6-Cyclopropylmethoxy-5-(3,3-difluoro-azetidin-1-yl)-pyridine-2-carbonyl]-4,4-difluoro-pyrrolidine-2-carboxylic acid amide], the figures for the EC50 at human CB2 receptors and on human CB1 receptors were 3.08 nM and more than 10000 nM, respectively.

In the case of `CC1(O)CCN(C(=O)c2ccc(N3CC(F)(F)C3)c(OCC3CC3)n2)CC1` [Example 61, [6-Cyclopropylmethoxy-5-(3,3-difluoro-azetidin-1-yl)-pyridin-2-yl]-(4-hydroxy-4-methyl-piperidin-1-yl)-methanone], the results for the concentration giving a half-maximal response (EC50) at human CB2 receptors and at human CB1 receptors were 391 nM and more than 10000 nM, respectively.
